PubChem BioAssay AID504685 (Sanford-Burnham Center for Chemical Genomics, 2011)
The source made the active and inactive calls. How the calls were made is not given here.

Each molecule was assayed against Bcl-2-related protein A1 (Mus musculus) (UniProt Q07440) (assay: off-target activity on mouse Bfl-1 – biochemical, counter-screen for UBC13 polyubiquitination inhibitor project, SAR follow-up (AID 504685)). Details: Bfl-1 counterscreen for UBC13 inhibitors.
With N#Cc1ccccc1Cn1c(=O)n(CCCC(=O)NC2CCN(Cc3ccccc3)CC2)c(=O)c2ccccc21 the IC50 was > 100 µM (inactive). COc1ccc(-c2oc3ncnc(N)c3c2-c2ccccc2)cc1 was tested, and the IC50 was > 100 µM (inactive). For COc1ccc2sc(N(CCCN(C)C)C(=O)c3ccc(S(=O)(=O)N4CCc5ccccc5C4)cc3)nc2c1, the IC50 was > 100 µM (inactive). For O=C(CCCCCN1C(=O)c2ccccc2C1=O)N1CCN(c2ccc([N+](=O)[O-])cc2)CC1, the IC50 was > 100 µM (inactive). For COC(=O)C1=C(NC(=O)CCCCCN2C(=O)c3ccccc3C2=O)SC2CCCC12 (stereo not drawn), the IC50 was > 100 µM (inactive). O=C1c2cccc3cccc(c23)C(=O)N1CCN1CCN(CC(O)COc2ccccc2)CC1 (stereo not drawn) was tested, and the IC50 was > 100 µM (inactive). For CCc1ccc2nc(N(CCCN(C)C)C(=O)c3ccc(S(=O)(=O)N4CCc5ccccc5C4)cc3)sc2c1, the IC50 was > 100 µM (inactive). In the case of O=C(CCCCn1c(=O)c2ccccc2n(Cc2ccccc2F)c1=O)NC1CCN(Cc2ccccc2)CC1, the IC50 is reported as > 100 µM (inactive). With CN(C)CCCN(C(=O)c1ccc(S(=O)(=O)N2CCCC2)cc1)c1nc2ccc(Br)cc2s1 the IC50 was > 100 µM (inactive). For CCOc1cccc2sc(N(CCCN(C)C)C(=O)c3ccc(S(=O)(=O)N(C)Cc4ccccc4)cc3)nc12, the IC50 was > 100 µM (inactive). With O=C(CCCCCN1C(=O)c2ccccc2C1=O)NCCc1nc2ccccc2[nH]1 the IC50 was > 100 µM (inactive). In the case of O=C(NCC1CCN(Cc2cccc(Cl)c2)CC1)C1CCCN(c2ncnc3c2nc2n3CCCCC2)C1 (stereo not drawn), the IC50 is reported as > 100 µM (inactive). CC1CN(S(=O)(=O)c2ccc(NC(=O)CCCCCN3C(=O)c4ccccc4C3=O)cc2)CC(C)O1 (stereo not drawn) was tested, and the IC50 was > 100 µM (inactive). With O=C(CCCCCN1C(=O)c2ccccc2C1=O)Nc1ccc(S(=O)(=O)Nc2ncccn2)cc1 the IC50 was > 100 µM (inactive). In the case of COCCOC(=O)c1ccc(NC(=O)CCCCCN2C(=O)c3ccccc3C2=O)cc1, the IC50 is reported as > 100 µM (inactive). With O=C(CCCCCN1C(=O)c2cccc3cccc(c23)C1=O)NCc1cccnc1 the IC50 was > 100 µM (inactive). O=C(NCCCN1CCN(c2ccccc2)CC1)C1CCCN(c2ncnc3c2nc2n3CCCCC2)C1 (stereo not drawn) was tested, and the IC50 was > 100 µM (inactive). With Cc1c(NC(=O)CCCN2C(=O)c3cccc4cccc(c34)C2=O)c(=O)n(-c2ccccc2)n1C the IC50 was > 100 µM (inactive). For Cc1cccc(OCC(O)CN2CCN(CCN3C(=O)c4cccc5cccc(c45)C3=O)CC2)c1C (stereo not drawn), the IC50 was > 100 µM (inactive). Work on COC(=O)c1ccc(OCC(O)CN2CCN(CCN3C(=O)c4cccc5cccc(c45)C3=O)CC2)cc1 (stereo not drawn) yielded an IC50 of 56.9 µM. Work on O=C1c2cccc3cccc(c23)C(=O)N1CC1CCN(CC(O)COc2ccc3ccccc3c2)CC1 (stereo not drawn) yielded an IC50 of 68.5 µM. With Cc1ccc(NC(=O)C2CCN(c3ncnc4c3nc3n4CCCCC3)CC2)cc1Cl the IC50 was > 100 µM (inactive). For O=C(CCCCCN1C(=O)c2ccccc2C1=O)Nc1ccc(S(=O)(=O)N2CCCCC2)cc1, the IC50 was > 100 µM (inactive). CCOc1ccc2nc(N(CCCN(C)C)C(=O)c3ccc(S(=O)(=O)N4CCc5ccccc5C4)cc3)sc2c1 was tested, and the IC50 was > 100 µM (inactive). In the case of O=C(c1ccc(S(=O)(=O)N2CCCC2)cc1)N1CCC(CN2C(=O)c3cccc4cccc(c34)C2=O)CC1, the IC50 is reported as > 100 µM (inactive). For Cc1ccccc1OCC(O)CN1CCN(CCN2C(=O)c3cccc4cccc(c34)C2=O)CC1 (stereo not drawn), the IC50 was > 100 µM (inactive). CCCCN(CC)S(=O)(=O)c1ccc(C(=O)N(CCCN(C)C)c2nc3cc(C)cc(C)c3s2)cc1 was tested, and the IC50 was > 100 µM (inactive). In the case of CN(CCNC(=O)C1CCN(c2ncnc3c2nc2n3CCCCC2)CC1)Cc1ccccc1, the IC50 is reported as > 100 µM (inactive). For COc1ccc(OC)c2sc(N(CCCN(C)C)C(=O)c3ccc(S(=O)(=O)N4CCc5ccccc5C4)cc3)nc12, the IC50 was 12 µM. In the case of O=C(c1ccco1)N1CCN(C(=O)C2CCN(c3ncnc4c3nc3n4CCCCC3)CC2)CC1, the IC50 is reported as > 100 µM (inactive). In the case of O=C(CCCCn1c(=O)c2ccccc2n(Cc2ccccc2)c1=O)NC1CCN(Cc2ccccc2)CC1, the IC50 is reported as > 100 µM (inactive). In the case of COc1ccc2sc(N(CCCN(C)C)C(=O)c3ccc(S(=O)(=O)N(C)Cc4ccccc4)cc3)nc2c1, the IC50 is reported as 79.4 µM. For CCOc1cccc2sc(N(CCCN(C)C)C(=O)c3ccc(S(=O)(=O)N4CCc5ccccc5C4)cc3)nc12, the IC50 was > 100 µM (inactive). In the case of CCCCOC(=O)c1cccc(NC(=O)CCCCCN2C(=O)c3ccccc3C2=O)c1, the IC50 is reported as > 100 µM (inactive). For COc1cc(/C=C/c2cc[n+](C)cc2)ccc1OCC(=O)Nc1ccc(Cl)c(Cl)c1, the IC50 was 55.3 µM. CCOc1ccc2nc(N(CCCN(C)C)C(=O)c3ccc(C(=O)c4ccccc4)cc3)sc2c1 was tested, and the IC50 was > 100 µM (inactive). In the case of CN(C)CCCN(C(=O)c1ccc(S(=O)(=O)N2CCCCC2)cc1)c1nc2cc3c(cc2s1)OCO3, the IC50 is reported as > 100 µM (inactive). With COc1cccc(NC(=O)CCCCCN2C(=O)c3cccc([N+](=O)[O-])c3C2=O)c1 the IC50 was > 100 µM (inactive). In the case of O=C(CCCCCN1C(=O)c2ccccc2C1=O)NCc1ccccc1, the IC50 is reported as > 100 µM (inactive). With Cc1ccccc1NC(=S)NC(=O)CCCCCN1C(=O)c2ccccc2C1=O the IC50 was > 100 µM (inactive). For CN(C)CCCN(C(=O)c1ccc(S(=O)(=O)N2CCCCCC2)cc1)c1nc2cc3c(cc2s1)OCCO3, the IC50 was > 100 µM (inactive). In the case of COc1cc2nc(N(CCCN(C)C)C(=O)c3ccc(S(=O)(=O)N4CCc5ccccc5C4)cc3)sc2cc1OC, the IC50 is reported as 69.3 µM. In the case of COc1ccc(CCNC(=O)CCCCCN2C(=O)c3ccccc3C2=O)cc1, the IC50 is reported as > 100 µM (inactive). Molecule CCN(Cc1ccccc1)S(=O)(=O)c1ccc(C(=O)N(CCCN(C)C)c2nc3cc4c(cc3s2)OCCO4)cc1 has an IC50 of 84 µM. In the case of COc1ccc(CCNC(=O)CCCCCN2C(=O)c3ccccc3C2=O)cc1OC, the IC50 is reported as > 100 µM (inactive). With O=C(C1CCN(c2ncnc3c2nc2n3CCCCC2)CC1)N1CCN(c2ccccn2)CC1 the IC50 was > 100 µM (inactive). CC(=O)c1ccc(OCC(O)CN2CCN(CCN3C(=O)c4cccc5cccc(c45)C3=O)CC2)cc1 (stereo not drawn) showed an IC50 of 73.5 µM. In the case of COc1cccc(OCC(O)CN2CCN(CCN3C(=O)c4cccc5cccc(c45)C3=O)CC2)c1 (stereo not drawn), the IC50 is reported as > 100 µM (inactive). CCCOC(=O)c1ccc(NC(=O)CCCCCN2C(=O)c3ccccc3C2=O)cc1 was tested, and the IC50 was > 100 µM (inactive). Cc1cc(OCC(O)CN2CCN(CCN3C(=O)c4cccc5cccc(c45)C3=O)CC2)ccc1C(C)C (stereo not drawn) was tested, and the IC50 was > 100 µM (inactive). Work on CCN(Cc1ccccc1)S(=O)(=O)c1ccc(C(=O)N(CCCN(C)C)c2nc3cc4c(cc3s2)OCO4)cc1 yielded an IC50 of 57 µM. For O=C(NCC1CCN(Cc2ccc(Cl)cc2)CC1)C1CCCN(c2ncnc3c2nc2n3CCCCC2)C1 (stereo not drawn), the IC50 was > 100 µM (inactive). With CN(C)CCCN(C(=O)c1ccc(C(=O)c2ccccc2)cc1)c1nc2cc3c(cc2s1)OCCO3 the IC50 was 85.3 µM. For O=C(C1CCN(c2ncnc3c2nc2n3CCCCC2)CC1)N1CCN(c2ccccc2)CC1, the IC50 was > 100 µM (inactive). CCOc1ccc(NC(=O)Cn2c(=O)n(CCCC(=O)NC3CCN(Cc4ccccc4)CC3)c(=O)c3ccccc32)cc1 was tested, and the IC50 was > 100 µM (inactive). With O=C(CCCCCN1C(=O)c2cccc3cccc(c23)C1=O)NCCO the IC50 was > 100 µM (inactive). Cc1ccccc1CN1CCC(CNC(=O)C2CCCN(c3ncnc4c3nc3n4CCCCC3)C2)CC1 (stereo not drawn) was tested, and the IC50 was > 100 µM (inactive). CCN(Cc1ccccc1)S(=O)(=O)c1ccc(C(=O)N(CCCN(C)C)c2nc3cc(C)cc(C)c3s2)cc1 was tested, and the IC50 was > 100 µM (inactive). With COc1ccc(C(=O)Nn2c(C)nc3ccccc3c2=O)cc1 the IC50 was > 100 µM (inactive). With Cc1ccc2c(c1)C1CN(C)CCC1N2C(=O)CCCN1C(=O)c2cccc3cccc(c23)C1=O (stereo not drawn) the IC50 was > 100 µM (inactive). CN(C)CCCN(C(=O)c1ccc(S(=O)(=O)N2CCc3ccccc3C2)cc1)c1nc2ccc(F)cc2s1 showed an IC50 of 60.7 µM. With CCC1CCCCN1CCCNC(=O)C1CCN(c2ncnc3c2nc2n3CCCCC2)CC1 (stereo not drawn) the IC50 was > 100 µM (inactive). In the case of O=C(CCCCCN1C(=O)c2ccccc2C1=O)NCc1ccccn1, the IC50 is reported as > 100 µM (inactive). With O=C1c2cccc3cccc(c23)N1Cc1ccc(F)cc1 the IC50 was > 100 µM (inactive). In the case of O=C(CCCCCN1C(=O)c2cccc([N+](=O)[O-])c2C1=O)NCc1ccccc1, the IC50 is reported as > 100 µM (inactive). In the case of CC(NC(=O)CCCCCN1C(=O)c2ccccc2C1=O)c1nc(-c2ccccc2)no1 (stereo not drawn), the IC50 is reported as > 100 µM (inactive). For CC(NC(=O)CCCCCN1C(=O)c2cccc([N+](=O)[O-])c2C1=O)c1ccccc1 (stereo not drawn), the IC50 was > 100 µM (inactive). O=C(Nc1ccc(F)c(Cl)c1)C1CCN(c2ncnc3c2nc2n3CCCCC2)CC1 was tested, and the IC50 was > 100 µM (inactive). Cc1cc(C)c2sc(N(CCCN(C)C)C(=O)c3ccc(S(=O)(=O)N(C)Cc4ccccc4)cc3)nc2c1 was tested, and the IC50 was > 100 µM (inactive). With COc1ccc(NC(=O)CCCCCN2C(=O)c3cccc([N+](=O)[O-])c3C2=O)cc1 the IC50 was > 100 µM (inactive). For O=C1c2cccc3cccc(c23)C(=O)N1CCN1CCN(CC(O)COCc2ccc(Cl)cc2)CC1 (stereo not drawn), the IC50 was > 100 µM (inactive). Cc1cc(NC(=O)Cn2c(=O)n(CCCCC(=O)NC3CCN(Cc4ccccc4)CC3)c(=O)c3ccccc32)n[nH]1 was tested, and the IC50 was > 100 µM (inactive). In the case of CN(C)CCCN(C(=O)c1ccc(S(=O)(=O)N2CCCCCC2)cc1)c1nc2ccc(Br)cc2s1, the IC50 is reported as > 100 µM (inactive). In the case of Cc1ccc(C)c(CN2CCC(CNC(=O)C3CCCN(c4ncnc5c4nc4n5CCCCC4)C3)CC2)c1 (stereo not drawn), the IC50 is reported as > 100 µM (inactive). In the case of Cc1cc(C)c2sc(N(CCCN(C)C)C(=O)c3ccc(S(=O)(=O)N(C)C4CCCCC4)cc3)nc2c1, the IC50 is reported as > 100 µM (inactive). With CCCN1CCN(C(=O)C2CCN(c3ncnc4c3nc3n4CCCCC3)CC2)CC1 the IC50 was > 100 µM (inactive). CNCc1cc(Br)c(OCC(=O)Nc2ccccc2OC)c(OC)c1 was tested, and the IC50 was > 100 µM (inactive). In the case of O=C(C1COc2ccccc2O1)N1CCN(CCN2C(=O)c3cccc4cccc(c34)C2=O)CC1 (stereo not drawn), the IC50 is reported as > 100 µM (inactive). For O=C1c2cccc3cccc(c23)C(=O)N1CCN1CCN(CC(O)COc2ccc(C3CCCCC3)cc2)CC1 (stereo not drawn), the IC50 was > 100 µM (inactive). For C=CCc1ccccc1OCC(O)CN1CCN(CCN2C(=O)c3cccc4cccc(c34)C2=O)CC1 (stereo not drawn), the IC50 was > 100 µM (inactive). For Cc1cc(NS(=O)(=O)c2ccc(NC(=O)CCCCCN3C(=O)c4ccccc4C3=O)cc2)nc(C)n1, the IC50 was > 100 µM (inactive). In the case of Cc1nc2ccccc2c(=O)n1NC(=O)c1ccc(OC(F)F)cc1, the IC50 is reported as > 100 µM (inactive). In the case of O=C(NCCCN1CCCCC1)C1CCN(c2ncnc3c2nc2n3CCCCC2)CC1, the IC50 is reported as > 100 µM (inactive).
